Consider twelve molecules from PubChem BioAssay (NCI).

Some test systems named below: HT29 colon; SK-MEL-5 melanoma; SK-MEL-2 melanoma; HCC-2998 colon; OVCAR-4 ovarian; MOLT-4 leukemia; KM12 colon; HCT-15 colon; SF-539 CNS; HL-60(TB) leukemia.
What all share (test): NCI anticancer screen, dose series, 48 h

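Each compound was tested at five concentrations against cells in 96-well plates for 48 hours. Abbreviation: GI50, concentration required for 50% inhibition of growth. TGI: total growth inhibition.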

Take `CC1(O)COCCCCOc2c(CN)cccc2NC(=O)c2nc(cnc2N)-c2ccc(cc2)S(=O)(=O)C(C)(C)C1` (centres undefined): the GI50 in the experiment on HT29 colon was 0.408 µM; in the experiment with SK-MEL-5 melanoma it was 1.25 µM; in the experiment on SK-MEL-2 melanoma, 1.74 µM; in the experiment with HCC-2998 colon it was 1.48 µM; in the experiment with OVCAR-4 ovarian it was 1.29 µM; with MOLT-4 leukemia, 0.019 µM. Besides, the results for the GI50 in the experiment with KM12 colon, in the experiment with HCT-15 colon and with SF-539 CNS were 1.43 µM, 0.227 µM and 0.03 µM, respectively. The TGI in the experiment with HT29 colon was determined as 2.47 µM; with SK-MEL-5 melanoma, 2.56 µM; with SK-MEL-2 melanoma, 3.36 µM; in the experiment with HCC-2998 colon, 2.87 µM; in the experiment with OVCAR-4 ovarian it was 2.71 µM; in the experiment with MOLT-4 leukemia it was 2.4 µM. The TGI with KM12 colon was found to be 2.93 µM; in the experiment with HCT-15 colon, 1.82 µM; with SF-539 CNS, 1.67 µM.
As to `Cc1ccc(N=NC(C2=NC(=O)CS2)c2nc3ccccc3[nH]2)cc1` (centres undefined), the TGI in the experiment with HT29 colon was > 100 µM; in the experiment with SK-MEL-5 melanoma, > 100 µM; in the experiment on HL-60(TB) leukemia it was > 100 µM; in the experiment on OVCAR-4 ovarian, > 100 µM; with MOLT-4 leukemia, 76.7 µM; with KM12 colon it was > 100 µM. The TGI in the experiment with HCT-15 colon and with SF-539 CNS was > 100 µM in each case.
With `CC1(C=O)CCC23COC4(CCC5C6(C)CCC(OC7OCC(OC8OC(CO)C(O)C(OC9OC(CO)C(O)C(O)C9O)C8OC8OCC(O)C(O)C8O)C(O)C7OC7OC(CO)C(O)C(O)C7O)C(C)(C)C6CCC5(C)C4(C)CC2O)C3C1` (centres undefined), the TGI was 2.07 µM in the experiment with HT29 colon; 2.96 µM with SK-MEL-5 melanoma; 1.41 µM in the experiment on HL-60(TB) leukemia; 2.98 µM in the experiment with SK-MEL-2 melanoma; 2.17 µM with HCC-2998 colon; 2.38 µM in the experiment with OVCAR-4 ovarian. For the same molecule, the results for the TGI with KM12 colon, in the experiment with HCT-15 colon and in the experiment on SF-539 CNS were 1.42 µM, 2.86 µM and 2.63 µM, respectively.
`CO/N=C(\C)c1cccc(Nc2nc3ccccc3c3occc23)c1`: the TGI in the experiment on HT29 colon is 17.6 µM; in the experiment with SK-MEL-5 melanoma, 28.7 µM; in the experiment with HL-60(TB) leukemia, 59.5 µM; with HCC-2998 colon, 28.8 µM; in the experiment with OVCAR-4 ovarian it was 31.8 µM; with MOLT-4 leukemia it was 37.3 µM. Further, the TGI worked out at 24.5 µM in the experiment on KM12 colon, 24.5 µM in the experiment on HCT-15 colon and 26.9 µM in the experiment with SF-539 CNS.
Regarding `CCc1ccc2c(c1)C(=O)c1c-2n(CCCN)c(=O)c2cc([N+](=O)[O-])ccc12`, the GI50 was 0.452 µM with HT29 colon; 1.6 µM with SK-MEL-5 melanoma; 0.376 µM in the experiment on HCC-2998 colon; 1.39 µM in the experiment on OVCAR-4 ovarian; 1.02 µM with KM12 colon; 1.6 µM in the experiment on SF-539 CNS. Besides, the TGI stood at 2.07 µM with HT29 colon; 3.12 µM with SK-MEL-5 melanoma; 1.12 µM in the experiment on HCC-2998 colon; 3 µM with OVCAR-4 ovarian; 2.43 µM in the experiment on KM12 colon; 3.01 µM in the experiment with SF-539 CNS.
For `CCOP(=O)(OCC)C(Nc1cccc(F)c1)c1ccc(N(C)C)cc1` (centres undefined), the TGI in the experiment with HT29 colon, in the experiment with SK-MEL-5 melanoma, in the experiment on HL-60(TB) leukemia, in the experiment on SK-MEL-2 melanoma, with HCC-2998 colon and in the experiment on OVCAR-4 ovarian was > 100 µM each time. Further, the TGI in the experiment with MOLT-4 leukemia, in the experiment on KM12 colon, with HCT-15 colon and in the experiment with SF-539 CNS was > 100 µM in each case.
In the case of `CC1CC(Br)C(=O)O1` (centres undefined), the TGI with HT29 colon, in the experiment with SK-MEL-5 melanoma, in the experiment with HL-60(TB) leukemia, with SK-MEL-2 melanoma, with HCC-2998 colon and with OVCAR-4 ovarian was > 100 µM throughout. For the same molecule, the TGI in the experiment with MOLT-4 leukemia, with KM12 colon, with HCT-15 colon and with SF-539 CNS was > 100 µM in each case.
As for `COC(=O)NC1C(C)OC(OC2C/C=C(/C)C3C=CC4C(OC5CC(OC6CC(OC7CC(O)C(O)C(C)O7)C(OC7CC(O)C(OC)C(C)O7)C(C)O6)C(O)C(C)O5)C(C)CC(C)C4C3(C)/C(O)=C3\C(=O)OC4(CC(C)C(CO)=CC4/C=C\2C)C3=O)CC1(C)[N+](=O)[O-]` (centres undefined), the TGI in the experiment on HT29 colon was 20.5 µM; in the experiment with SK-MEL-5 melanoma, > 100 µM; with HL-60(TB) leukemia it was 11.4 µM; in the experiment on SK-MEL-2 melanoma, 87.2 µM; in the experiment with HCC-2998 colon, 18.9 µM; in the experiment with OVCAR-4 ovarian it was 46.2 µM. Also, the TGI is 31.7 µM with MOLT-4 leukemia, 20.5 µM in the experiment with KM12 colon, 36.4 µM in the experiment with HCT-15 colon and > 100 µM with SF-539 CNS.
For the molecule `C[N+](C)(C)CCN[N+]1(C)CCCc2ccccc21` (centres undefined), the TGI in the experiment with HT29 colon, in the experiment on SK-MEL-5 melanoma, in the experiment on HL-60(TB) leukemia, with SK-MEL-2 melanoma, in the experiment on HCC-2998 colon and in the experiment on OVCAR-4 ovarian was > 100 µM throughout. Further, the TGI was 90.6 µM in the experiment with MOLT-4 leukemia, > 100 µM in the experiment on KM12 colon, > 100 µM with HCT-15 colon and > 100 µM with SF-539 CNS.
With `COc1cc([N+](=O)[O-])ccc1N1C(=O)C2c3[nH]c4ccccc4c3C3CCC(C(C)(C)C)CC3C2C1=O` (centres undefined), the TGI in the experiment on HT29 colon, in the experiment on SK-MEL-5 melanoma, in the experiment on HL-60(TB) leukemia, with SK-MEL-2 melanoma, in the experiment on HCC-2998 colon and with OVCAR-4 ovarian was > 100 µM throughout. In addition, the TGI with MOLT-4 leukemia, with KM12 colon, in the experiment on HCT-15 colon and with SF-539 CNS was > 100 µM each time.
With `CS(=O)(=O)OCCN(CCOS(C)(=O)=O)c1ccc(/C=N/Nc2ncnc3nc[nH]c23)cc1`, the TGI turned out to be 65.9 µM with HT29 colon; 31.7 µM in the experiment on SK-MEL-5 melanoma; 27.1 µM in the experiment on HL-60(TB) leukemia; 39.2 µM in the experiment with SK-MEL-2 melanoma; 39.5 µM in the experiment on HCC-2998 colon; 60 µM in the experiment on OVCAR-4 ovarian. For the same molecule, the TGI in the experiment on MOLT-4 leukemia was 40 µM; in the experiment with KM12 colon, 34.8 µM; in the experiment on HCT-15 colon, > 100 µM; in the experiment with SF-539 CNS, 49.4 µM.
For `CCCCCCCN(CCCCCCC)CC(O)c1cc2ccccc2c2cc(Br)ccc12` (centres undefined), the TGI with HT29 colon is > 100 µM; in the experiment with HL-60(TB) leukemia it was > 100 µM; with SK-MEL-2 melanoma, 69.9 µM; in the experiment with HCC-2998 colon, 45.7 µM; in the experiment with OVCAR-4 ovarian, > 100 µM; with MOLT-4 leukemia, > 100 µM. Moreover, the TGI in the experiment with HCT-15 colon and in the experiment on SF-539 CNS was > 100 µM in each case.
